Reference: US20260256794A1, “Oral Dynamine Formulations and Methods Therefor” (Ortho-Nutra, LLC, priority 2023, published 2026)

Experiments:
Assay type in all cases: in vivo, human
subjects [1] = assay: Stroop-Average Time; settings: unit assumed
Protocol: (§1) The inventors have discovered various compositions and methods of improving various indices of neurological and neuroenergetic functions by administering 100 mg (once daily) dosages of DYNAMINE™ (dosage between 1.0 and 1.4 mg/kg) as described in the following:
(§2) All neuroenergetic tests as listed below were performed and data were collected after 0 and 4 days of assigned supplements (with acute effects also measured at day 4 over 180 minutes):
(§3) Stroop Color Matching Test (Total Score, Accuracy %, Average Score): Day 0: Two blocks of three tests were completed. Each block of three tests was separated by 10 minutes. The median of each block was taken and then those two scores were averaged. This value was used in all statistical analysis. Day 4: Three tests were completed at four time points: after 0, 60, 120, and 180 minutes of taking dose #4. The median of the three tests at each time point was used in all statistical analysis.
(§4) The Stroop Color and Word Test (SCWT, or Stroop test) is a neuropsychological test extensively used to assess the ability to inhibit cognitive interference that occurs when the processing of a specific stimulus feature impedes the simultaneous processing of a second stimulus attribute, well-known as the Stroop effect (see e.g., Front Psychol. 2017; 8:557). Here, subjects were required to read three different tables as fast as possible. Two of them represent the “congruous condition” in which participants are required to read names of colors (‘color-words’) printed in black ink (W) and name different color patches (C). However, in the third table, the color-word (CW) condition, color-words are printed in an inconsistent color ink (e.g., the word “red” is printed in green ink). In this incongruent condition, participants are required to name the color of the ink instead of reading the word. In other words, the participants are required to perform a less automated task (i.e., naming ink color) while inhibiting the interference arising from a more automated task (i.e., reading the word). This difficulty in inhibiting the more automated process is called the Stroop effect. The Stroop test is predominantly used to measure the ability to inhibit cognitive interference. However, some sources also report its application to measure other cognitive functions such as attention, processing speed, cognitive flexibility, and working memory.
Stroop-Average Time: The results for this test were based on an average time score comparing performance between Day 0 and Day 4, with Day 4 including tests over a duration of 180 minutes. Results were collected as noted above and Table 45 provides exemplary results for Day 0 versus Day 4 ratings, whereas Table 46 provides exemplary acute results measured at Day 4 over a duration of 180 minutes.

subjects [2] = assay: VAS-Vigor; set-up: VAS-Vigor rating, Mean / VAS-Vigor changes from baseline, Mean Difference ± SE / VAS-Vigor area under the curve, Mean Difference ± SE / VAS-Vigor area under the curve, Mean: scale not given here
Protocol: as §1, §2
All VAS Measurement (Energy, Sustained Energy, Mental Stamina, Ability to Focus, Ability to Concentrate, Motivation to Accomplish Difficult Tasks, Drive, Vigor, Level of Positive Outlook, Mood, Feelings of Well-Being, Tolerate Stress); Day 0: Two tests were completed. The average of both scores was computed and this value was used in all statistical analysis. Day 4 (0 minutes after ingesting dose #4): Two tests were completed. The average of both scores was computed and this value was used in all statistical analysis. Day 4 (60, 120, and 180 minutes after ingesting dose #4): One test was completed at each time point.
Neuroenergic parameters are inherently subjective, nevertheless significant in human behavior and well-being. To allow for a standardization among different subjects, the following experiments were performed using a visual analog scale using anchor statements (lowest possible/highest possible) in which subjects were asked to rate their subjective experience with respect to the specific neuroenergic parameters tested.
VAS-Vigor: In this subjective test, subjects were asked to rate their personal level of energy on a VAS scale using the prompt of “My level of vigor right now is . . . ” (with rating lowest possible to highest possible)”. Results were collected as noted above and Table 25 provides exemplary results for Day 0 versus Day 4 ratings, whereas Table 26 provides exemplary acute results measured at Day 4 over a duration of 180 minutes. […] Of note, it should be appreciated that drive is also often a function of dopamine activation. As above, is it therefore contemplated that methylliberine may also have an agonist effect on dopamine receptors or signaling.

subjects [3] = assay: Stroop-Accuracy
Protocol: as §1, §2, §3, §4
Stroop-Accuracy: The results for this test were based on an accuracy score comparing performance between Day 0 and Day 4, with Day 4 including tests over a duration of 180 minutes. Results were collected as noted above and Table 43 provides exemplary results for Day 0 versus Day 4 ratings, whereas Table 44 provides exemplary acute results measured at Day 4 over a duration of 180 minutes.

subjects [4] = assay: Hemodynamics: heart rate
Protocol: (§5) Hemodynamics Systolic Blood Pressure, Diastolic Blood Pressure, Heart Rate were taken Pre and Post Stroop Test on Day 0; Pre and Post Stroop Test after 4 Days of Supplementation 0, 60, 120, and 180 minutes after ingestion of 4th dose.
(§6) For hemodynamic parameters, systolic blood pressure, diastolic blood pressure, and heart rate were taken pre- and post-Stroop Test on Day 0, and pre- and post-Stroop Test after 4 Days of Supplementation 0, 60, 120, and 180 minutes after ingestion of 4th dose.

subjects [5] = assay: Hemodynamics: diastolic blood pressure; settings: for Diastolic blood pressure changes from baseline, Mean Difference ± SE / Diastolic blood pressure changes from baseline, effect size d: between groups (placebo)
Protocol: as §1, §5, §6

[6] = 100 mg once daily, Day 4, 0 min after dose #4
[7] = 100 mg once daily, Day 4, 60 min after dose #4
[8] = 100 mg once daily, Day 4, 120 min after dose #4
[9] = 100 mg once daily, Day 4, 180 min after dose #4
[10] = 100 mg once daily, Day 4, 0-180 min, vs Group A (placebo)
[11] = 100 mg once daily, Day 4, 60 min-0 min, vs Group A (placebo)
[12] = 100 mg once daily, Day 4, 120 min-0 min, vs Group A (placebo)
[13] = 100 mg once daily, Day 4, 180 min-0 min, vs Group A (placebo)
[14] = 100 mg once daily, Day 4, 60 min-0 min
[15] = 100 mg once daily, Day 4, 120 min-0 min
[16] = 100 mg once daily, Day 4, 180 min-0 min

## COc1nc2c(c(=O)n1C)n(C)c(=O)n2C [methylliberine, 2-methoxy-1,7,9-trimethylpurine-6,8-dione]
Subjects [1]; [6]
  Stroop average time, Mean: 0.961 s
Subjects [1]; [7]
  Stroop average time, Mean: 0.929 s
Subjects [1]; [8]
  Stroop average time, Mean: 0.921 s
Subjects [1]; [9]
  Stroop average time, Mean: 0.908 s
Subjects [1]; Day 0 (before supplementation)
  Stroop average time, Mean: 0.983 s
Subjects [2]; 100 mg once daily, Day 4, 0-180 min
  VAS-Vigor area under the curve, Mean: 1112
Subjects [2]; [10]
  VAS-Vigor area under the curve, Mean Difference ± SE: 21.8 ± 41.5
  VAS-Vigor area under the curve, effect size d: 0.07
Subjects [2]; [6]
  VAS-Vigor rating, Mean: 5.8
Subjects [2]; [11]
  VAS-Vigor changes from baseline, Mean Difference ± SE: 0.02 ± 0.23
  VAS-Vigor changes from baseline, effect size d: 0.02
Subjects [2]; [7]
  VAS-Vigor rating, Mean: 6.2
Subjects [2]; [12]
  VAS-Vigor changes from baseline, Mean Difference ± SE: −0.12 ± 0.25
  VAS-Vigor changes from baseline, effect size d: 0.13
Subjects [2]; [8]
  VAS-Vigor rating, Mean: 6.3
Subjects [2]; [13]
  VAS-Vigor changes from baseline, Mean Difference ± SE: 0.43 ± 0.28
  VAS-Vigor changes from baseline, effect size d: −0.41
Subjects [2]; [9]
  VAS-Vigor rating, Mean: 6.4
Subjects [2]; Day 0 (before supplementation)
  VAS-Vigor rating, Mean: 5.8
Subjects [3]; [6]
  Stroop accuracy, Mean: 99.2%
Subjects [3]; [7]
  Stroop accuracy, Mean: 99.1%
Subjects [3]; [8]
  Stroop accuracy, Mean: 99.0%
Subjects [3]; [9]
  Stroop accuracy, Mean: 98.9%
Subjects [3]; Day 0 (before supplementation)
  Stroop accuracy, Mean: 99.2%
Subjects [4]; 100 mg once daily, Day 4
  Heart rate, Mean: 69.8 beats/min
Subjects [4]; Day 0 (before supplementation)
  Heart rate, Mean: 71.4 beats/min
Subjects [5]; 100 mg once daily, Day 4, 0 min after 4th dose
  Diastolic blood pressure, Mean: 77.3 mm Hg
Subjects [5]; [14]
  Diastolic blood pressure changes from baseline, Mean Difference ± SE: 1.28 ± 1.65 mm Hg
  Diastolic blood pressure changes from baseline, effect size d: −0.21
Subjects [5]; 100 mg once daily, Day 4, 60 min after 4th dose
  Diastolic blood pressure, Mean: 76.9 mm Hg
Subjects [5]; [15]
  Diastolic blood pressure changes from baseline, Mean Difference ± SE: 5.84 ± 1.55 mm Hg
  Diastolic blood pressure changes from baseline, effect size d: −0.84
Subjects [5]; 100 mg once daily, Day 4, 120 min after 4th dose
  Diastolic blood pressure, Mean: 75.6 mm Hg
Subjects [5]; [16]
  Diastolic blood pressure changes from baseline, Mean Difference ± SE: 2.64 ± 1.66 mm Hg
  Diastolic blood pressure changes from baseline, effect size d: −0.42
Subjects [5]; 100 mg once daily, Day 4, 180 min after 4th dose
  Diastolic blood pressure, Mean: 77.2 mm Hg
Subjects [5]; Day 0 (before supplementation)
  Diastolic blood pressure, Mean: 76.6 mm Hg
